Measured values as given in BindingDB's records for patent US20250171447 (Merck Sharp & Dohme, 2025).

Key:
Adenosine receptor A2a = Adenosine receptor A2a (Homo sapiens, UniProt P29274); assay: A2A Binding Affinity Using SPA
Adenosine receptor A2b = molecular target: T1, Adenosine receptor A2b (Homo sapiens, UniProt P29275); assay: A2B Binding Affinity Assay
T1 sequence (P29275 whole entry): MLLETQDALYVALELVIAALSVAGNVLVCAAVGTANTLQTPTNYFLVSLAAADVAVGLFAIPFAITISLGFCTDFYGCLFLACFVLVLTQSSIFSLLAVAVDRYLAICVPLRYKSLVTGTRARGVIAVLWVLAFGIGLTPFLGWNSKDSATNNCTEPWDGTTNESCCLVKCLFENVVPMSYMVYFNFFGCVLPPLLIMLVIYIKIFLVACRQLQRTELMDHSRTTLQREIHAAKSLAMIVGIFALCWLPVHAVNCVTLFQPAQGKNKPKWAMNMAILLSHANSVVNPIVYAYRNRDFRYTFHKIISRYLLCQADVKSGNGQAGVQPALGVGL

Sequence of Adenosine receptor A2a (P29274 whole entry): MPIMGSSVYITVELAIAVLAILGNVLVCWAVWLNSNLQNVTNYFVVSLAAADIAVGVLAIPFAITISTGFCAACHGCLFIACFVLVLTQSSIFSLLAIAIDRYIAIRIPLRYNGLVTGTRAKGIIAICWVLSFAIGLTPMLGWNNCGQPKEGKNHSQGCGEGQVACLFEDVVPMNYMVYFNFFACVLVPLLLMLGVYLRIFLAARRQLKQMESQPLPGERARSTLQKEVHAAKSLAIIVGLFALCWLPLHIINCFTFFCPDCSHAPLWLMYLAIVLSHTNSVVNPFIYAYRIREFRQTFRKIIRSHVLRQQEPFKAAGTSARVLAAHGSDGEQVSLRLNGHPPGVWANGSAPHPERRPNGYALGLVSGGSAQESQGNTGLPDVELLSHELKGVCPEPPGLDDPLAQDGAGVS

SMILES | IC50 (Adenosine receptor A2a) [nM] | IC50 (Adenosine receptor A2b) [nM]
COc1cc(F)cc2c1nc(N)n1nc(C3CC3c3ccc(F)cc3)nc21 (centres undefined) [US20250171447, Ex-31] | 44.2 | 27.3
COc1cc(F)cc2c1nc(N)n1nc(C3CC3(F)c3ccccc3)nc21 (centres undefined) [US20250171447, Ex-32] | 377 | 601
COc1cc(F)cc2c1nc(N)n1nc(C3CC3(F)c3ccccc3)nc21 (centres undefined) [US20250171447, Ex-33] | 472 | 62.4
COc1cccc2c1nc(N)n1nc(C3CC3CO)nc21 (centres undefined) [US20250171447, Ex-35] | 7.3 | 105
COc1cccc2c1nc(N)n1nc(C3CC3CO)nc21 (centres undefined) [US20250171447, Ex-36] | 20.5 | 805
COc1cccc2c1nc(N)n1nc([C@H]3C[C@H](c4ccc(C(C)(C)O)nc4)C3)nc21 [US20250171447, Ex-53] | 8.8 | –
COc1ccc2c(c1)nc(N)n1nc([C@H]3C[C@@H](c4ccc(CC(C)(C)O)cn4)C3)nc21 [US20250171447, Ex-55] | 15.5 | –
COc1ccc2c(c1)nc(N)n1nc([C@H]3C[C@H](c4ccc(CC(C)(C)O)cn4)C3)nc21 [US20250171447, Ex-56] | 17.8 | –
COc1ccc2c(c1)nc(N)n1nc([C@H]3C[C@@H](c4cnc(C(C)(C)O)cn4)C3)nc21 [US20250171447, Ex-57] | 47.4 | –
COc1ccc2c(c1)nc(N)n1nc([C@H]3C[C@H](c4cnc(C(C)(C)O)cn4)C3)nc21 [US20250171447, Ex-58] | 136 | –
COc1ccc2c(c1)nc(N)n1nc([C@H]3C[C@@H](c4ccc(C(C)(C)O)cn4)C3)nc21 [US20250171447, Ex-59] | 5.7 | –
COc1ccc2c(c1)nc(N)n1nc([C@H]3C[C@H](c4ccc(C(C)(C)O)cn4)C3)nc21 [US20250171447, Ex-60] | 7.9 | –
COc1ccc2c(c1)nc(N)n1nc([C@H]3C[C@H](c4ncc(C(C)(C)O)cn4)C3)nc21 [US20250171447, Ex-61] | 42.6 | –
COc1ccc2c(c1)nc(N)n1nc([C@H]3C[C@@H](c4ncc(C(C)(C)O)cn4)C3)nc21 [US20250171447, Ex-62] | 107 | –
CC(C)(O)c1ccc([C@H]2C[C@@H](c3nc4c5cc(F)cc(F)c5nc(N)n4n3)C2)nc1 [US20250171447, Ex-63] | 7 | 0.4
CC(C)(O)c1ccc([C@H]2C[C@H](c3nc4c5cc(F)cc(F)c5nc(N)n4n3)C2)nc1 [US20250171447, Ex-64] | 16 | 1.7
COc1cccc2c1nc(N)n1nc([C@H]3C[C@H](c4ccc(C(C)(C)N)nc4)C3)nc21 [US20250171447, Ex-84] | 8.2 | –
Cc1nc(C(C)(C)N)cnc1[C@H]1C[C@@H](c2nc3c4cccc(Cl)c4nc(N)n3n2)C1 [US20250171447, Ex-128] | 52 | –
Cc1nc(C(C)(C)N)cnc1[C@H]1C[C@H](c2nc3c4cc(F)cc(F)c4nc(N)n3n2)C1 [US20250171447, Ex-129] | 4.5 | –
Cc1nc(C(C)(C)N)cnc1[C@H]1C[C@@H](c2nc3c4cc(F)cc(F)c4nc(N)n3n2)C1 [US20250171447, Ex-130] | 89.2 | –
COc1cc2nc(N)n3nc([C@H]4C[C@@H](c5ncc(C(C)(C)N)nc5C)C4)nc3c2cc1F [US20250171447, Ex-132] | 37.2 | –

The next compounds have a lower IC50 (Adenosine receptor A2a) than those just listed; values first:

IC50 (Adenosine receptor A2a) [nM] | IC50 (Adenosine receptor A2b) [nM] | SMILES
3.5 | 45 | COc1cc(F)cc2c1nc(N)n1nc(C3CC3(F)c3ccccc3)nc21 (centres undefined) [US20250171447, Ex-29]
3.1 | – | COc1cccc2c1nc(N)n1nc(C3CC(c4ccc(C5(C#N)CNC5)nc4)C3)nc21 (centres undefined) [US20250171447, Ex-116]
2.5 | – | COc1cc2nc(N)n3nc([C@H]4C[C@H](c5ncc(C(C)(C)N)nc5C)C4)nc3c2cc1F [US20250171447, Ex-131]
2.4 | – | COc1cc(F)cc2c1nc(N)n1nc([C@H]3C[C@H](c4ccc(C(C)(C)O)cn4)C3)nc21 [US20250171447, Ex-44]
2.1 | – | COc1cccc2c1nc(N)n1nc([C@H]3C[C@@H](c4ccc(CC(C)(C)O)cn4)C3)nc21 [US20250171447, Ex-65]
2 | – | COc1cccc2c1nc(N)n1nc([C@H]3C[C@H](c4ccc(CC(C)(C)O)cn4)C3)nc21 [US20250171447, Ex-66]
1.6 | 6.2 | COc1cc(F)cc2c1nc(N)n1nc([C@H]3C[C@@H](c4ccc(C(C)(C)O)cn4)C3)nc21 [US20250171447, Ex-45]
1.1 | 6.9 | COc1cccc2c1nc(N)n1nc([C@H]3C[C@@H](c4ccc(C(C)(C)O)nc4)C3)nc21 [US20250171447, Ex-54]
1.1 | – | COc1cccc2c1nc(N)n1nc([C@H]3C[C@H](c4ccc(C5(O)CC(F)(F)C5)cn4)C3)nc21 [US20250171447, Ex-103]
0.8 | 2.7 | COc1cccc2c1nc(N)n1nc(C3CC(c4ncc(C(C)(C)N)cc4Cl)C3)nc21 (centres undefined) [US20250171447, Ex-87]
0.6 | 71.9 | COc1cc(F)cc2c1nc(N)n1nc(C3CC3(F)c3ccccc3)nc21 (centres undefined) [US20250171447, Ex-39]
